Assay results as given in PubChem BioAssay AID328 (DTP/NCI, 2004).
Where “and” joins values, the source holds several entries; their conditions need not be identical. Equal entries are not always repeated. Toxic doses and inconclusive results are not listed.

Tested on: BDF1 mice, P388 leukemia ip, median survival T/C
Assay: NCI In Vivo Anticancer Drug Screen. Data for tumor model P388 Leukemia (intraperitoneal) in B6D2F1 (BDF1) mice
Settings: endpoint: median survival time, higher = longer survival
Method in brief: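 Steps: implant the tumour, treat one group with compound and another with vehicle, record survival, then divide treated by control.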

[1] = dose: 25.0 mg/kg/injection, schedule: Q01DX009 (ip), vehicle: saline with Tween-80
[2] = dose: 50.0 mg/kg/injection, schedule: Q01DX009 (ip), vehicle: saline with Tween-80
[3] = dose: 100.0 mg/kg/injection, schedule: Q01DX009 (ip), vehicle: saline with Tween-80
[4] = dose: 200.0 mg/kg/injection, schedule: Q01DX009 (ip), vehicle: saline with Tween-80
[5] = dose: 100.0 mg/kg/injection, schedule: Q04DX003 (ip), vehicle: saline with Tween-80

`COC(=O)C[CH2][Pb]([c]1ccccc1)([c]1ccccc1)[c]1ccccc1` was tested, and the T/C [1] was 106 % of control and the T/C [2] was 98 % of control.

In the case of `CCOC12c3c4cccc3C(=O)c3cccc(c31)C(=O)c1cccc(c12)C4=O`, the T/C (dose: 100.0 mg/kg/injection, schedule: Q01DX001 (ip), vehicle: Klucel (hydroxypropylcellulose) (HPC)) is reported as 95 % of control, the T/C (dose: 100.0 mg/kg/injection, schedule: Q01DX009 (ip), vehicle: Klucel (hydroxypropylcellulose) (HPC)) is reported as 100 % of control and the T/C (dose: 100.0 mg/kg/injection, schedule: Q04DX003 (ip), vehicle: Klucel (hydroxypropylcellulose) (HPC)) is reported as 100 % of control. For the same compound, the T/C (dose: 200.0 mg/kg/injection, schedule: Q01DX001 (ip), vehicle: Klucel (hydroxypropylcellulose) (HPC)) was 100 % of control, the T/C (dose: 200.0 mg/kg/injection, schedule: Q01DX009 (ip), vehicle: Klucel (hydroxypropylcellulose) (HPC)) was 100 % of control and the T/C (dose: 200.0 mg/kg/injection, schedule: Q04DX003 (ip), vehicle: Klucel (hydroxypropylcellulose) (HPC)) was 100 % of control. The T/C (dose: 400.0 mg/kg/injection, schedule: Q01DX001 (ip), vehicle: Klucel (hydroxypropylcellulose) (HPC)) was 109 % of control, the T/C (dose: 400.0 mg/kg/injection, schedule: Q01DX009 (ip), vehicle: Klucel (hydroxypropylcellulose) (HPC)) was 90 % of control and the T/C (dose: 400.0 mg/kg/injection, schedule: Q04DX003 (ip), vehicle: Klucel (hydroxypropylcellulose) (HPC)) was 91 % of control.

In the case of `O=C1OCC/C1=C1/Nc2ccccc2NC1=O`, the T/C (dose: 12.5 mg/kg/injection, schedule: Q01DX009 (ip), vehicle: saline with Tween-80) is reported as 105 % of control, the T/C [1] is reported as 100 % of control and the T/C [2] is reported as 96 % of control.

For `C=C1[C@@H](C)[C@H]2[C@H](Cc3ccccc3)NC(=O)[C@]23OC(=O)/C=C/[C@H](O)CCC[C@@H](C)C/C=C/[C@H]3[C@@H]1O`, the T/C (dose: 0.25 mg/kg/injection, schedule: Q01DX005 (ip), vehicle: saline with Tween-80) was 86 % of control, the T/C (dose: 0.5 mg/kg/injection, schedule: Q01DX005 (ip), vehicle: saline with Tween-80) was 100 % of control and the T/C (dose: 1.0 mg/kg/injection, schedule: Q01DX005 (ip), vehicle: saline with Tween-80) was 100 % of control. For the same compound, the T/C (dose: 1.0 mg/kg/injection, schedule: Q04DX002 (ip), vehicle: saline) was 109 % of control, the T/C (dose: 2.0 mg/kg/injection, schedule: Q01DX005 (ip), vehicle: saline with Tween-80) was 107 % of control and the T/C (dose: 2.0 mg/kg/injection, schedule: Q04DX002 (ip), vehicle: saline) was 109 % of control. The T/C (dose: 4.0 mg/kg/injection, schedule: Q01DX005 (ip), vehicle: saline with Tween-80) was 115 % of control, the T/C (dose: 8.0 mg/kg/injection, schedule: Q01DX005 (ip), vehicle: saline with Tween-80) was 117 % of control and the T/C (dose: 8.0 mg/kg/injection, schedule: Q04DX002 (ip), vehicle: saline) was 109 % of control. The T/C (dose: 16.0 mg/kg/injection, schedule: Q04DX002 (ip), vehicle: saline) was 109 % of control and the T/C (dose: 32.0 mg/kg/injection, schedule: Q04DX002 (ip), vehicle: saline) was 100 % of control.

`CCc1ccccc1OS(=O)(=O)c1ccc([N+](=O)[O-])cc1` was tested, and the T/C (dose: 100.0 mg/kg/injection, schedule: Q01DX009 (ip), vehicle: saline sonified) was 88 % of control, the T/C (dose: 200.0 mg/kg/injection, schedule: Q01DX009 (ip), vehicle: saline sonified) was 88 % of control and the T/C (dose: 400.0 mg/kg/injection, schedule: Q01DX009 (ip), vehicle: saline sonified) was 94 % of control.

`O=C1CC2C3Nc4ccccc4C3CCN2C2=C1CC(OC(=O)c1ccccc1)CC2` (stereo not given) was tested, and the T/C [2] was 104 % of control, the T/C [3] was 104 % of control and the T/C [4] was 86 % of control.

In the case of `CC(=O)Nc1ncnc2n[nH]c(C#N)c12`, the T/C (dose: 12.5 mg/kg/injection, schedule: Q04DX003 (ip), vehicle: saline with Tween-80) is reported as 117 % of control, the T/C (dose: 25.0 mg/kg/injection, schedule: Q04DX003 (ip), vehicle: saline with Tween-80) is reported as 95 % of control and the T/C (dose: 50.0 mg/kg/injection, schedule: Q04DX003 (ip), vehicle: saline with Tween-80) is reported as 104 % of control. For the same compound, the T/C [5] was 106 % of control.

For `COB1OB(OC)OB(OC)O1`, the T/C [3] was 104 % of control, the T/C [5] was 100 % of control and the T/C [4] was 100 % of control. For the same compound, the T/C (dose: 200.0 mg/kg/injection, schedule: Q04DX003 (ip), vehicle: saline with Tween-80) was 100 % of control, the T/C (dose: 400.0 mg/kg/injection, schedule: Q01DX009 (ip), vehicle: saline with Tween-80) was 109 % of control and the T/C (dose: 400.0 mg/kg/injection, schedule: Q04DX003 (ip), vehicle: saline with Tween-80) was 100 % of control.

In the case of `OC(CCl)CN1CC[N+]2(CC1)CC[N+]1(CCN(CC(O)CCl)CC1)CC2` (stereo not given), the T/C (dose: 11.25 mg/kg/injection, schedule: Q01DX009 (ip), vehicle: water) is reported as 114 % of control, the T/C (dose: 27.5 mg/kg/injection, schedule: Q01DX009 (ip), vehicle: water) is reported as 100 % of control and the T/C (dose: 45.0 mg/kg/injection, schedule: Q01DX009 (ip), vehicle: water) is reported as 115 % of control. The T/C (dose: 200.0 mg/kg/injection, schedule: Q01DX009 (ip), vehicle: water) was 153 % of control and 159 % of control.
